The test system of data set [1] is RAW264.7. Put plainly: Inhibition of LPS-induced NO expression in mouse RAW264.7 cells at 2 to 20 uM preincubated for 2 hr followed by LPS stimulation and measured after 24 hrs. In kind it is functional, cell-based. The note with it: dose 2-20 µM.
In data set [2] the test system is RAW264.7. The data set can be described thus: Inhibition of LPS-induced IL-1beta mRNA expression in mouse RAW264.7 cells at 2 to 20 uM preincubated for 2 hr followed by LPS stimulation and measured after 6 hrs by qRT-PCR. In kind it is functional, cell-based. The note with it: dose 2-20 µM. Background: Quantitative PCR measures a nucleic acid by following its amplification.

In data set [3] the test system is RAW264.7. The data set can be described thus: Inhibition of LPS-induced pro IL-1beta expression in mouse RAW264.7 cells at 2 to 20 uM preincubated for 2 hr followed by LPS stimulation and measured after 6 hrs by Western blot analysis. Format: functional, cell-based. The note with it: dose 2-20 µM. In general terms: Immunoblotting shows a protein as a band on a membrane.

In data set [4] the test system is RAW264.7. Put plainly: Inhibition of LPS-induced iNOS expression in mouse RAW264.7 cells at 2 to 20 uM preincubated for 2 hr followed by LPS stimulation and measured after 6 hrs by Western blot analysis. The following applies: dose 2-20 µM. In kind it is functional, cell-based.
The subject of data set [5] is BMDM. Put plainly: Inhibition of LPS-induced IL-1beta secretion in mouse BMDM cells at 2 to 20 uM preincubated for 2 hr followed by LPS stimulation and measured after 4 hrs. Format: functional, cell-based. The following applies: dose 2-20 µM.
For data set [6], the system named is BMDM. The data set can be described thus: Inhibition of LPS-induced IL-1beta mRNA expression in mouse BMDM cells at 5 to 10 uM preincubated for 2 hr followed by LPS stimulation and measured after 6 hrs by qRT-PCR. Format: functional, cell-based. The following applies: dose 5-10 µM.
Data set [7] addresses T1, Inhibitor of nuclear factor kappa-B kinase subunit alpha (Mus musculus) (UniProt Q60680).
T1 sequence (whole entry): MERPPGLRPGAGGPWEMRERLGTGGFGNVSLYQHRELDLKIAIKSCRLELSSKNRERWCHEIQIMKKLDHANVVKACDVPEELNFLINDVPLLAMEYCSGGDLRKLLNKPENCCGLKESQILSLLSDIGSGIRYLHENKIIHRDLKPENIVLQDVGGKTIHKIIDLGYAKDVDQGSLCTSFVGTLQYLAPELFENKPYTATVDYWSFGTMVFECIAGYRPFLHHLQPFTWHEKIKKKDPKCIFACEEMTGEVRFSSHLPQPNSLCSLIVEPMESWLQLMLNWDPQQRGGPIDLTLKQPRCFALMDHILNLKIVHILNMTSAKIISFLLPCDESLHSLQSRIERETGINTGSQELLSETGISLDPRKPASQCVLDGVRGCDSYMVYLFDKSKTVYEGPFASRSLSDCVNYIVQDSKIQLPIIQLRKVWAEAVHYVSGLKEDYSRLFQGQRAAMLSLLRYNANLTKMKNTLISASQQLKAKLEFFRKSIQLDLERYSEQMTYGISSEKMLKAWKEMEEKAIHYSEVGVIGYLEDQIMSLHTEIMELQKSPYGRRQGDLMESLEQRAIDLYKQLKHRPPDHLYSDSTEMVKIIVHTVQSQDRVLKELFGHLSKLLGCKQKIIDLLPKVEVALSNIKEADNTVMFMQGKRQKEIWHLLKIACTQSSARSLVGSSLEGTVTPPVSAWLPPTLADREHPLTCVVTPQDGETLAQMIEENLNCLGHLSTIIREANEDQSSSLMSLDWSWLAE
Put plainly: Inhibition of IKKalpha in mouse RAW264.7 cells assessed as inhibition of LPS-induced IKK-alpha phosphorylation level pre-treated for 2 hrs followed by LPS stimulation and measured after 6 hrs by Western blot analysis. In kind it is cell-based.

In data set [8] the test system is RAW264.7. The data set can be described thus: Inhibition of NF-kappaB in mouse RAW264.7 cells assessed as reduction in LPS-induced p65 phosphorylation pre-treated for 2 hrs followed by LPS stimulation and measured after 6 hrs by Western blot analysis. Format: cell-based.
Data set [9] has as its system RAW264.7. The data set can be described thus: Inhibition of MAPK signalling activation in mouse RAW264.7 cells assessed as reduction in LPS-induced p38 phosphorylation pre-treated for 2 hrs followed by LPS stimulation and measured after 6 hrs by Western blot analysis. In kind it is cell-based.
For data set [10], the system named is RAW264.7. The data set can be described thus: Cytotoxicity against mouse RAW264.7 cells at > 50 uM. In kind it is cell-based.

SMILES strings stand for the structures. The source made the active and inactive calls. The rule behind the calls is not given here.

Regarding `C=CC(=O)Oc1ccc(/C=C/C(=O)c2c(OC)cc3c(c2OC(=O)C=C)CCC(C)(C)O3)cc1`, the inhibition result in the data set with RAW264.7 [1], in the data set on RAW264.7 [2], with RAW264.7 [3], in the data set on RAW264.7 [4], in the data set on BMDM [5] and in the data set with BMDM [6] was “Active” in each case. Further, the inhibition result (in [7]; in the data set with RAW264.7 [8]; in the data set on RAW264.7 [9]) was “Active” in each case. Besides, in the data set on RAW264.7 [10], the Activity result is “Non-Toxic”.

The record behind these values is ChEMBL document CHEMBL4819083, “Synthesis of pyranochalcone derivatives and their inhibitory effect on NF-κB activation” (Bioorg Med Chem Lett, 2021).
